Article PMC9879403, “Oncolytic strategy using new bifunctional HDACs/BRD4 inhibitors against virus-associated lymphomas” (PLOS Pathogens, 2023)
Read-outs that look alike come from different tables or passages of the source.

Columns and labels:
[1] = WST-1 cytotoxicity assay, BL-41 (KSHV negative lymphoma); type: cell-based; conditions: human; 50% cytotoxic concentration, 72 h, WST-1; read-out: KSHV negative lymphomas CC50, BL-41
Excerpt: (§1) Fig 2 Identification of newly synthesized dual inhibitors with anti-PEL activities. (A) The binding mode of (+)-JQ1 with BRD4^BD1 (PDB: 3MXF). BRD4^BD1 is shown as hot pink cartoon with gray surface. Asn140 in BRD4^BD1 is shown as sticks and colored in following pattern: atom C hot pink, atom N dark blue, and atom O yellow. (+)-JQ1 is shown as sticks and colored in following patten: atom C hot pink, atom N dark blue, atom O yellow, atom S golden, and atom Cl green. The solvent exposed region (SEG) of (+)-JQ1 are indicated with white arrow. (B) The binding modes of SAHA and entinostat with HDAC2 (PDB: 3MAX). HDAC2 is shown as blue cartoon with gray surface. Asp181 and His183 in HDAC2 are shown as sticks and colored in following pattern: atom C blue, atom N dark blue, and atom O yellow. The catalytic zinc ion in the active site of HDAC2 is shown as black sphere. SAHA is shown as sticks and colored in following pattern: atom C green, atom N dark blue, and atom O yellow. Entinostat is shown as sticks and colored in following pattern: atom C hot pink, atom N dark blue, and atom O yellow. The SEG of SAHA or entinostat is indicated with white arrow. Hydrogen bonds (H-bonds) are presented by red dash lines. (C) The HDACs/BRD4 dual inhibitors 002-011 were designed by fusing the key pharmacophores of (+)-JQ1 (pink) and HDAC inhibitors (blue), SAHA or entinostat, via various chemical linkers (green). (D) Anti-PEL activities of the new compounds. Five KSHV positive and two KSHV negative lymphoma cell lines were treated with indicated concentrations of these compounds for 72 h. Then the cytotoxicity was determined using the WST-1 assay. (+)-JQ1, SAHA and entinostat were used for the comparisons as single inhibitors. The CC50 for each compound was calculated using GraphPad Prism 5.0 software. Error bars represent S.D. for 3 independent experiments.
(§2) The cell viability following treatment with compounds was assessed by the WST-1 assay (Roche, Indianapolis, Indiana, USA) according to the manufacturer’s protocol as described previously. The absorbance signal was measured using a microplate reader (Biotek Synergy 2). The 50% cytotoxic concentration (CC50) for each compound was calculated from these dose-response curves using the software GraphPad Prism v5.0. Data were normalized as the fold change compared to the DMSO control.

BCBL-1 cells [2] = test: PEL xenograft model (BCBL-1 cells i.p.)
Procedure: (A) Plasma concentrations of (+)-JQ1, SAHA, or 009P1 after a single administration of 50 mg per kg body (i.p. injection) were presented as mean ± SD (n = 3 mice per time point). (B-E) NOD/SCID mice were injected i.p. with BCBL-1 cells. 72 h later, the compounds or vehicle were administered i.p. as described in the Methods, and weights were recorded weekly. At the end of the treatment period, the splenic tissues were collected from the vehicle or compound treated mice, compared and processed with the H&E and IHC staining. (F) Plasma concentrations of 009P1 after a single administration of 50 mg per kg body (oral gavage) were presented as mean ± SD (n = 3 mice per time point). (G-I) NOD/SCID mice were injected i.p. with BCBL-1 cells. 72 h later, the compounds or vehicle were administered orally as described in the Methods, and weights were recorded weekly.
In all NOD/SCID mice, 6–8-week-old, male (Jackson Laboratory, Ellsworth, Maine, USA), 1 × 10^7 BCBL-1 cells in 200 μL RMPI-1640 without FBS were injected intraperitoneally and then mice were randomized into treatment groups of 6 mice as described previously. The tested compounds or vehicle was administered initially at 72 h after BCBL-1 injections, and continued once daily, 2 days per week for 3 weeks. Weights were recorded weekly as a surrogate measure of tumor progression. At the end of experiment, the spleens of mice were excised for immunoblots and immunohistochemical analyses.
Formalin-fixed, paraffin-embedded tissues were microtome-sectioned to a thickness of 4 μm and placed on electromagnetically charged slides. Immunohistochemistry was performed as described previously, and the c-Myc and H3K9Ac antibodies were purchased from Abcam. Images were collected using an Olympus BX61 microscope equipped with a high resolution DP72 camera and CellSense image capture software.

BJAB.219 = test: WST-1 cytotoxicity assay, BJAB.219 (KSHV-infected lymphoma); type: cell-based; conditions: 72 h, read-out: KSHV-infected lymphomas CC50, BJAB.219
Excerpt: as §1
BCBL-1 and iSLK.219 cells were kindly provided by Dr. Pinghui Feng (University of Southern California). BL-41, BJAB, BCP-1, BC-1, BC-3, JSC-1, HUVEC cells were purchased from American Type Culture Collection (ATCC), and cultured as recommended by the manufacturer. For making BJAB.219 cells, BJAB cells were infected with rKSHV.219 stock by spinoculation as previously reported by centrifugation at 1500×g for 60 min [31]. Then, puromycin (10 μg/ml) was added into the medium at 72 h post-infection and the medium containing puromycin was replaced twice a week. After 6-week high concentration of puromycin selection, BJAB.219 cells were then cultured in the medium with 0.5 μg/ml puromycin.
The cell viability following treatment with compounds was assessed by the WST-1 assay (Roche, Indianapolis, Indiana, USA) according to the manufacturer’s protocol as described previously. The absorbance signal was measured using a microplate reader (Biotek Synergy 2). […]

BCBL-1 cells [3] = test: RNA-Sequencing of compound-treated vs vehicle-treated cells; type: cell-based, human; conditions: for Ratio, ARC / Ratio, ARRDC3 / Ratio, ATF3 / Ratio, CCDC169-SOHLH2 / Ratio, CD28 / Ratio, CD44 / Ratio, CFAP58 / Ratio, CHAC1 / Ratio, CSF1R / Ratio, DDIT3 / Ratio, DDIT4 / Ratio, FOS / Ratio, IFNG / Ratio, IRF7 / Ratio, LGALS9B / Ratio, MCM5 / Ratio, PRKCB / Ratio, RP11-707M3.3 / Ratio, SOCS3 / Ratio, SPINT1: gene expression, treated vs vehicle BCBL-1 cells
Procedure: RNA-Sequencing (RNA-Seq) of triplicate samples was performed by BGI Americas Corporation using their unique DNBSEQ sequencing technology. The completed RNA-Sequencing data was submitted to NCBI Sequence Read Archive (SRA# # PRJNA813422). Raw sequencing reads were analyzed using the RSEM software (version 1.3.0; human GRCh38 genome sequence and annotation) and gene expression was quantified as previously described. The EBSeq software was utilized to call differentially expressed genes that were statistically significant using a false discovery rate (FDR) less than 0.05. Differentially expressed genes between compounds- and vehicle-treated PEL cells were used as input for the GO enrichment analyses.

[4] = WST-1 cytotoxicity assay, BJAB (KSHV negative lymphoma); type: cell-based; conditions: human; 50% cytotoxic concentration, 72 h, WST-1; read-out: KSHV negative lymphomas CC50, BJAB
Excerpt: as §1, §2

KSHV = test: Viral DNA levels in PEL cells by qPCR; type: cell-based

Row | Compound | CC50 at 72 h [1] | Ratio, ARC (BCBL-1 cells [3]) | Ratio, ARRDC3 (BCBL-1 cells [3]) | Ratio, ATF3 (BCBL-1 cells [3]) | Ratio, CCDC169-SOHLH2 (BCBL-1 cells [3]) | Ratio, CD28 (BCBL-1 cells [3]) | Ratio, CD44 (BCBL-1 cells [3]) | Ratio, CFAP58 (BCBL-1 cells [3]) | Ratio, CHAC1 (BCBL-1 cells [3]) | Ratio, CSF1R (BCBL-1 cells [3]) | Ratio, DDIT3 (BCBL-1 cells [3]) | Ratio, DDIT4 (BCBL-1 cells [3]) | Ratio, FOS (BCBL-1 cells [3]) | Ratio, IFNG (BCBL-1 cells [3]) | Ratio, IRF7 (BCBL-1 cells [3]) | Ratio, LGALS9B (BCBL-1 cells [3]) | Ratio, MCM5 (BCBL-1 cells [3]) | Ratio, PRKCB (BCBL-1 cells [3]) | Ratio, RP11-707M3.3 (BCBL-1 cells [3]) | Ratio, SOCS3 (BCBL-1 cells [3]) | also measured
1 | Cc1sc2c(c1C)C(c1ccc(Cl)cc1)=N[C@@H](CC(=O)OC(C)(C)C)c1nnc(C)n1-2 [(+)-JQ1, reference compound] | 680 nM | 21.83 | 27.58 | 28.74 | 0.1299 | 0.05544 | 0.09101 | 0.2089 | 55.65 | 62.41 | 20.73 | 28.37 | 78.64 | 0.1251 | 52.67 | 0.04587 | 0.1471 | 0.06358 | 0.2212 | 37.19 | Tumor infiltration into the spleen (H&E) (BCBL-1 cells [2]; i.p., 50 mg/kg): slightly reduced; Visible toxicity in mice (abnormal weight loss) (BCBL-1 cells [2]; i.p., 50 mg/kg): visible toxicity; CC50 (BJAB.219): ~120 nM; Ratio, SPINT1 (BCBL-1 cells [3]): 0.1876; CC50 at 72 h [4]: 1110 nM
2 | O=C(CCCCCCC(=O)Nc1ccccc1)NO [SAHA, suberoylanilide hydroxamic acid, reference compound] | 3940 nM | 10.26 | 7.834 | 33.64 | 0.1697 | 0.3793 | 0.293 | 0.411 | 53.96 | 3.864 | 16.62 | 5.426 | 21.04 | 0.312 | 5.624 | 0.3605 | 0.4255 | 0.3013 | 0.2461 | 9.781 | Viral DNA levels (KSHV): obviously increased; CC50 (BJAB.219; 50% cytotoxic concentration, WST-1): 560 nM; CC50 at 72 h [4]: 3340 nM
3 | Cc1sc2c(c1C)C(c1ccc(Cl)cc1)=N[C@@H](CC(=O)O[C@H](C)c1ccc(C(=O)Nc3ccccc3N)cc1)c1nnc(C)n1-2 [009P1, (R)-1-(4-((2-aminophenyl)carbamoyl)phenyl)ethyl 2-((S)-4-(4-chlorophenyl)-2,3,9-trimethyl-6H-thieno[3,2-f][1,2,4]triazolo[4,3-a][1,4]diazepin-6-yl)acetate] |  | 18.81 | 30.72 | 12.86 | 0.3358 | 0.4509 | 0.1954 | 0.1358 | 8.345 | 24.82 | 12.33 | 21.76 | 46.18 | 0.1678 | 23.79 | 0.03812 | 0.2002 | 0.02626 | 0.3443 | 41.42 | Viral DNA levels (KSHV): slightly increased; PEL tumor progression (ascites formation, spleen enlargement) (BCBL-1 cells [2]; i.p., 20 mg/kg): dramatically suppressed PEL tumor progression; Tumor infiltration into the spleen (H&E) (BCBL-1 cells [2]; i.p., 20 mg/kg): only diffuse small tumor nodules; Visible toxicity in mice (abnormal weight loss) (BCBL-1 cells [2]; i.p., 20 mg/kg): not observed; Tumor burden in mice (ascites formation, spleen enlargement) (BCBL-1 cells [2]; oral administration, 20 mg/kg): effectively repressed tumor burden; Genes differentially expressed between 009P1- and 009P2-treated PEL cells (BCBL-1 cells [3]; BCBL-1, ≥ 2 fold-change and FDR < 0.05): 473 genes; Ratio, SPINT1 (BCBL-1 cells [3]): 0.1504
